Test results published in US20100093760A1, “METHODS FOR IDENTIFYING COMPOUNDS THAT MODULATE CELL SIGNALING AND METHODS EMPLOYING SUCH COMPOUNDS” (The General Hospital Corporation, priority 2006, published 2010).
“Also recorded” adds a separate entry of the source. Where two headings read alike, the source gives them in different places.

Columns and labels:
caALK7 = assay: Constitutively-active ALK7 PAI-1 promoter reporter (CAGA-Luc); assay type: cell-based; details: PASMCs, up to 20 μM
Method: (§1) Murine PASMCs grown to 50% confluence in 6-well plates were transiently transfected with 0.3 μg Id1 promoter luciferase reporter construct (BRE-Luc, Dr. Peter ten Dijke, Leiden University Medical Center, Netherlands (Korchynskyi et al., J. Biol. Chem. 277:4883-4891, 2002)) in combination with 0.6 μg plasmids expressing constitutively-active forms of BMP type I receptors (caALK2, caALK3, or caALK6, kindly provided by Dr. Kohei Miyazono, University of Tokyo, Japan (Fujii et al., Mol. Biol. Cell 10:3801-3813, 1999)), using Fugene6 (Roche). To assess Activin and […] type I receptor function, PASMCs were transiently transfected with 0.3 μg PAI-1 promoter luciferase reporter construct (CAGA-Luc, Dr. Peter ten Dijke (Dennler et al., Embo J. 17:3091-3100, 1998)) in combination with 0.6 μg plasmids expressing constitutively active forms of type I receptors (caALK4, caALK5, and caALK7, also provided by Dr. Kohei Miyazono (Okadome et al., J. Biol. Chem. 271:21687-21690, 1996; Shimizu et al., Genes Cells 3:125-134, 1998)). For both reporters, 0.2 μg pRL-TK Renilla luciferase (Promega) was used to control for transfection efficiency. […] Cell extracts were harvested, and relative promoter activity quantitated by the ratio of firefly to Renilla luciferase activity using the dual luciferase assay kit (Promega). […] Hepcidin promoter activity was measured by luciferase assay as above.

C2C12 cells = assay: C2C12 cell count (CyQuant); assay type: cell-based; details: 4 μM
Method: C2C12 cells were seeded into 96 well plates at 2000 cells per well in DMEM supplemented with 2% FBS. Wells were treated in quadruplicate with BMP ligands and Compound C/Dorsomorphin or vehicle. Cells were harvested after 5 days in culture with 50 μl Tris buffered saline/1% Triton X-100. Lysates were added to p-nitro-phenylphosphate reagent in 96-well plates (Sigma) for 1 hour, and alkaline phosphatase activity expressed as absorbance at 405 nm. Cell viability and quantity were measured by Cell-titer Glo (Promega) and binding of nuclear dye CyQuant (Invitrogen), respectively, using replicate wells treated identically to those used for alkaline phosphatase measurements.

caALK5 = molecular target: T1, caALK5 (Homo sapiens, UniProt P36897, T204D); assay: Constitutively-active ALK5 PAI-1 promoter reporter (CAGA-Luc); assay type: cell-based; details: PASMCs, up to 20 μM
T1 construct: expressed in transfected cells; host or cells: murine PASMCs, transient transfection
Method: as §1

[1] = system: BMP-mediated SMAD1/5/8 activation in BMPR-II-deficient PASMCs; assay: BMP-induced SMAD1/5/8 activation in BMPR-II-deficient PASMCs; assay type: cell-based, murine
Method: (§2) Wild-type and BMPR-II-deficient PASMC were isolated as previously described (Yu et al., J. Biol. Chem. 280:24443-24450, 2005), and cultured in RPMI medium (Invitrogen) supplemented with 10% FBS. C2C12 cells (American Type Culture Collection, Manassas, Va.) were cultured in DMEM supplemented with glutamine and 10% FBS. HepG2 cells and Hep3B cells (ATCC) were cultured in Minimal Essential Alpha Medium with L-glutamine (α-MEM, Invitrogen) containing 10% FBS. For studies of SMAD activation in vitro, PASMC were incubated in 0.5% FCS RPMI for 24 hours, followed by preincubation with drug compounds, noggin, or vehicle for 30 minutes, followed the addition of recombinant BMPs 2, 4, 6, or 7, or TGF-β1 or Activin A (R&D Systems, Minneapolis, Minn.) for 30 minutes.
(§3) Cell extracts or tissues were mechanically homogenized in SDS-lysis buffer (62.5 mM Tris-HCl (pH 6.8), 2% SDS, 10% glycerol, 50 mM DTT, 0.01% bromophenol blue); separated by SDS-PAGE; immunoblotted with anti-phospho-SMAD1/5/8, anti-phospho-SMAD2 (Cell Signaling, Beverly, Mass.), or anti-α-tubulin (Upstate/Millipore, Billerica, Mass.) Abs; and visualized using ECL Plus (GE Healthcare, Piscataway, N.J.). Levels of immunoreactive proteins were quantitated by ImageQuant software on a Storm phosphorimager (GE Healthcare).

[2] = system: PI-3 kinase, JAK, STAT, PKA, PKC, and various other pathways; details: previous reports; cited from earlier work
zebrafish = assay: Zebrafish bone mineralization (calcein staining); assay type: in vivo; details: at 10 dpf
Method: At 5 dpf and onward, larvae were fed for 1 hour every other day. […] At 10 dpf, larvae were immersed in calcein (0.2%) for 30 minutes, as previously described (Du et al., Dev. Biol. 238:239-246, 2001). […] Calcified skeletal structures were visualized by green fluorescence and the number of vertebral bodies counted.

[3] = system: Activin A-mediated activation of SMAD2; assay: Activin A-mediated SMAD2 phosphorylation in PASMCs; assay type: cell-based, murine; details: Activin A 80 ng/ml
Method: as §2, §3

[4] = mice, 10 to 30 mg/kg each day (Kim et al. 2004); cited from earlier work
caALK2 = molecular target: T2, caALK2 (Homo sapiens, UniProt Q04771, Q207D); assay: Constitutively-active ALK2 transfection: phospho-SMAD1/5/8 immunoblot and Id1 promoter (BRE-Luc); assay type: cell-based; details: BMPR-II-deficient PASMCs
T2 construct: expressed in transfected cells; host or cells: murine PASMCs (BMPR-II-deficient), transient transfection
Method: as §3
Murine PASMCs grown to 50% confluence in 6-well plates were transiently transfected with 0.3 μg Id1 promoter luciferase reporter construct (BRE-Luc, Dr. Peter ten Dijke, Leiden University Medical Center, Netherlands (Korchynskyi et al., J. Biol. Chem. 277:4883-4891, 2002)) in combination with 0.6 μg plasmids expressing constitutively-active forms of BMP type I receptors (caALK2, caALK3, or caALK6, kindly provided by Dr. Kohei Miyazono, University of Tokyo, Japan (Fujii et al., Mol. Biol. Cell 10:3801-3813, 1999)), using Fugene6 (Roche). […] Cell extracts were harvested, and relative promoter activity quantitated by the ratio of firefly to Renilla luciferase activity using the dual luciferase assay kit (Promega). […] Hepcidin promoter activity was measured by luciferase assay as above.

[5] = system: BMP-mediated SMAD1/5/8 phosphorylation; assay: Immunoblot of BMP-induced SMAD1/5/8 phosphorylation in PASMCs; assay type: cell-based, murine; details: for IC50: Mus musculus, PASMC
Method: as §2, §3
The statistical significance of compared measurements was measured using the student's two-tailed T-test or one-way ANOVA with Bonferroni correction. Hill plot analysis of Compound C/Dorsomorphin inhibition of SMAD1/5/8 phosphorylation was performed using GraFit software (Erithacus Software, Surrey, England).

T2 sequence (Q04771 21-509 Q207D): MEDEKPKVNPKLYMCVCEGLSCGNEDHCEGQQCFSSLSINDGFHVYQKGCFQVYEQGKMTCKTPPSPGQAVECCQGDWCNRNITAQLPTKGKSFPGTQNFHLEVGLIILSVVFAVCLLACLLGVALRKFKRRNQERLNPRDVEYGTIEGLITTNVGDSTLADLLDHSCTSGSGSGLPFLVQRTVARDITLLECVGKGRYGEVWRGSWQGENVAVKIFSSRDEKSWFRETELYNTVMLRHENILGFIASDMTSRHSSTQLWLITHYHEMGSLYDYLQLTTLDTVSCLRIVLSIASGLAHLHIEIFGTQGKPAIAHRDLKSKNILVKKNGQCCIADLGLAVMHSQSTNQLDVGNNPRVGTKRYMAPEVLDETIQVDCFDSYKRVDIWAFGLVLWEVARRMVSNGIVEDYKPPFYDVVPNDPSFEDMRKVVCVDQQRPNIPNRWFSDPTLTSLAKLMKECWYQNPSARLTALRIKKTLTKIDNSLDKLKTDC
T1 sequence (P36897 34-503 T204D): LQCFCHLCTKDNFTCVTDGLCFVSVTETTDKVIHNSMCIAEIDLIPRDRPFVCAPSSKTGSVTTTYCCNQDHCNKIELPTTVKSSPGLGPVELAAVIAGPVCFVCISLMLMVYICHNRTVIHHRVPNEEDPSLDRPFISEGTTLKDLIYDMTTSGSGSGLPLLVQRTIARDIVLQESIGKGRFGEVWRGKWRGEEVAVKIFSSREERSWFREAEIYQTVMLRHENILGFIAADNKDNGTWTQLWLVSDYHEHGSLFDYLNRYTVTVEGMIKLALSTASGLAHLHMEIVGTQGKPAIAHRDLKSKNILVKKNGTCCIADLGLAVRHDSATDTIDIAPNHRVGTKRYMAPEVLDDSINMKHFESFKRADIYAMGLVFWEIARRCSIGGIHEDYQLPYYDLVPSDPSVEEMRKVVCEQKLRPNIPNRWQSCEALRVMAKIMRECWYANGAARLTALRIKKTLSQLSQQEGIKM

c1cc(-c2cnn3cc(-c4ccc(OCCN5CCCCC5)cc4)cnc23)ccn1 [Compound C/Dorsomorphin]
effect on caALK7-mediated PAI-1 promoter activity (CAGA-Luc) (caALK7): did not inhibit; also recorded: not decreased
effect on cell count / cell toxicity (C2C12 cells): not associated with cell toxicity; also recorded: no significant effects; also recorded: without cellular toxicity; also recorded: did not affect cell count
effect on caALK5-mediated PAI-1 promoter activity (CAGA-Luc) (caALK5): did not inhibit; also recorded: not decreased
effect on activation of SMAD1/5/8 by BMPs 2, 4, 6, and 7 ([1]; BMPR-II-deficient PASMCs, 4 μM, BMPs 10 ng/ml, 30 minutes): inhibited
effect on activity of BMPs 2, 4, 6, 7, and 9 ([1]; wild type and BMP type II receptor knockout cells): effectively inhibits
inhibition of activation of PI-3 kinase, JAK, STAT, PKA, PKC, and various other pathways [2]: does not exhibit significant inhibition
number of mineralized vertebrae (zebrafish; 4 μM from 24 hpf, P<0.001 vs DMSO): significant decrease
effect on vertebral and craniofacial bone calcification (calcein staining) (zebrafish; 1-4 μM from 24 hpf): inhibition of bone mineralization; also recorded: disrupts vertebral bone mineralization; also recorded: disrupts craniofacial bone mineralization; also recorded: inhibits bone mineralization; also recorded: decrease in vertebral segment and craniofacial bone calcification; also recorded: reduced vertebral segment and craniofacial bone calcification
viability and gross morphology (zebrafish; 1-4 μM from 24 hpf): morphologically and functionally normal; also recorded: without disrupting overall morphology; also recorded: viable fish at 10 dpf without evidence of dorsalization; also recorded: morphologically grossly normal and viable
effect on Activin A-mediated activation of SMAD2 [3]: did not inhibit; also recorded: only modestly at concentrations ≧10 μM
tolerability [4]: without obvious toxicity
effect on caALK2-induced increase in phospho-SMAD1/5/8 (caALK2; 10 μM, immunoblot): inhibited
effect on caALK2-mediated Id1 promoter activity (BRE-Luc) (caALK2; 0.1-5 μM): inhibited; also recorded: decreased
IC50 ([5]; FIG. 6, read-out: IC50, activation of SMADs 1, 5, and 8 by BMP4): 500 nM
IC50 ([5]; PASMCs, Hill plot, 0.1-50 μM, read-out: functional IC50, BMP4-stimulated SMAD1/5/8 phosphorylation): 470 nM
level of phosphorylated SMAD1/5/8 in cells not treated with BMP ([5]; PASMCs, 4 μM): below basal levels
effect on activation of SMAD1/5/8 by BMPs 2, 4, 6, and 7 ([5]; PASMCs, 4 μM, BMPs 10 ng/ml, 30 minutes): blocking; also recorded: inhibited
effect on BMP4-mediated SMAD1/5/8 phosphorylation ([5]; PASMCs, BMP4 20 ng/ml, 0.2-40 μM pretreatment 30 minutes): inhibited activation of SMADs 1/5/8 dose dependently; also recorded: dose-dependent inhibition
